Test results taken from article PMC11073699, “Odorant receptors for floral- and plant-derived volatiles in the yellow fever mosquito, Aedes aegypti (Diptera: Culicidae)” (PLOS ONE, 2024).
Where “and” joins values, the source holds several entries; their conditions need not be identical. Identical values can stand only once.

What was measured:
[1] = molecular target: T1, AaegOR6 (Aedes aegypti, UniProt A0A1S4G757); assay: Two-electrode voltage clamp of Xenopus laevis oocytes expressing AaegOR6/Orco (blends, unitary compounds, concentration-response); type: cell-based; details: for Raw data (Responses in nA) Oocyte 1 / Raw data (Responses in nA) Oocyte 2 / Raw data (Responses in nA) Oocyte 3 / Raw data (Responses in nA) Oocyte 4 / Raw data (Responses in nA) Oocyte 5 / Raw data (Responses in nA) Oocyte 6 / Raw data (Responses in nA) Oocyte 7 / Raw data (Responses in nA) Oocyte 8: Indoles 2 unitary compounds
T1 sequence (A0A1S4G757 1-398): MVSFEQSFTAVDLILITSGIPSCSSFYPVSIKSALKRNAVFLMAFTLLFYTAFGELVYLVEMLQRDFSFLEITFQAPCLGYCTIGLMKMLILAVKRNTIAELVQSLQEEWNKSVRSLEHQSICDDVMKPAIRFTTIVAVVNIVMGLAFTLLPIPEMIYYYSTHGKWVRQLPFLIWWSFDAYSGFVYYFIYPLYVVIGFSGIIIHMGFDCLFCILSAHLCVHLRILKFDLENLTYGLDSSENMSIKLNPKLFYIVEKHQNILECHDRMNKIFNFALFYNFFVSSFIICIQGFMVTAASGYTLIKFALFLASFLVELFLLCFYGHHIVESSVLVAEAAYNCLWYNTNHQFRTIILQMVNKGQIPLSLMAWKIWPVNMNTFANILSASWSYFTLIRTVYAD
T1 sequence (Q178U6 1-478 partner): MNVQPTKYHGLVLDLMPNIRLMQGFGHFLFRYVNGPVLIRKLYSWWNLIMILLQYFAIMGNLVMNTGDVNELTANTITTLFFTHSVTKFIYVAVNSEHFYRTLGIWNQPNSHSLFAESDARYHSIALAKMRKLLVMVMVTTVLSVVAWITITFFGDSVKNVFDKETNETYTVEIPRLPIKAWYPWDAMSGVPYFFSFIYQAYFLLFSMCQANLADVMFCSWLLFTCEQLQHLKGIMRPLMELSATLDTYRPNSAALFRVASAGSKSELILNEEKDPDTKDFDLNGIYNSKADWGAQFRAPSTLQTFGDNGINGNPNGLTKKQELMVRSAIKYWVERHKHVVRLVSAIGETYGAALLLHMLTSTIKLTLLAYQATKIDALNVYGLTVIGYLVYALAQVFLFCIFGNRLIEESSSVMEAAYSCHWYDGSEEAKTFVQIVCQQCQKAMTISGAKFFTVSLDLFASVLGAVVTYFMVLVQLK
Description: (§1) The coding regions of ten AaegOR genes of interest (S3 File) and AaegOrco were synthesized by Twist Bioscience (San Francisco, CA, USA) and cloned into the pENTR plasmid. The Gateway LR directional cloning system (Invitrogen Corp., Carlsbad, CA, USA) was utilized to subclone AaegOR coding regions into the pSP64t-RFA oocyte expression plasmid. Plasmids were purified using the GeneJet Plasmid Miniprep Kit (ThermoFisher Scientific, Waltham, MA, USA). Purified plasmids were sequenced in both directions to confirm coding regions.
(§2) Chemical compounds (S6 File) used in the deorphanization of AaegORs were purchased from Acros Organics (Morris, NJ, USA), Alfa Aesar (Ward Hill, MA, USA), and ThermoFisher Scientific (Waltham, MA, USA) at the highest purity available. Compounds were stored as 1M stocks in 100% DMSO. Serial dilutions of each compound were prepared in 10% DMSO and blended by chemical class.
(§3) pSP64t-RFA: AaegOR clones were linearized using Xbal, and cRNAs were synthesized using the mMESSAGE mMACHINE ® SP6 kit (Life Technologies, Carlsbad, CA, USA). Xenopus laevis stage V-VII oocytes purchased from Xenopus1 (Dexter, MI, USA) were stored at 18°C in Incubation medium (ND96 96 with 5% dialyzed horse serum, 50μg/mL gentamycin, 100μg/mL streptomycin, 100μg/mL penicillin, and 550μg/mL sodium pyruvate). 30nL of cRNA was injected into multiple oocytes using a microinjection syringe pump (World Precision Instruments, Sarasota, FL, USA) maintained at 18°C for 48–72 hrs. Odorant blends were perfused across individual oocytes for 10–15 seconds, held at a resting membrane potential of -80 mV using an OC-725C oocyte clamp (Warner Instruments, LLC, Hamden, CT, USA). Induced currents were measured indirectly using the two-electrode voltage clamp technique (TEVC). Following each stimulus, currents were allowed to return to baseline before further stimulation. Data was captured using the Digidata 1550 B digitizer and PClamp10 software (Molecular Devices, San Jose, CA, USA). Concentration-response curves were generated by perfusing unitary odorants over oocytes at increasing concentrations from [10^-3M] to [10^-9M]. Data were analyzed using GraphPad Prism 8 (GraphPad Software Inc., La Jolla, CA, USA). At least two biological replicates were conducted at each concentration and for each compound. Data for at least seven oocytes responding to each compound was analyzed (S7 File).

[2] = molecular target: T2, AaegOR71 (Aedes aegypti, UniProt A0A3S7SHD4); assay: Two-electrode voltage clamp of Xenopus laevis oocytes expressing AaegOR71/Orco (blends, unitary compounds, concentration-response); type: cell-based; details: Indoles 2 unitary compounds
T2 sequence (A0A3S7SHD4 1-415): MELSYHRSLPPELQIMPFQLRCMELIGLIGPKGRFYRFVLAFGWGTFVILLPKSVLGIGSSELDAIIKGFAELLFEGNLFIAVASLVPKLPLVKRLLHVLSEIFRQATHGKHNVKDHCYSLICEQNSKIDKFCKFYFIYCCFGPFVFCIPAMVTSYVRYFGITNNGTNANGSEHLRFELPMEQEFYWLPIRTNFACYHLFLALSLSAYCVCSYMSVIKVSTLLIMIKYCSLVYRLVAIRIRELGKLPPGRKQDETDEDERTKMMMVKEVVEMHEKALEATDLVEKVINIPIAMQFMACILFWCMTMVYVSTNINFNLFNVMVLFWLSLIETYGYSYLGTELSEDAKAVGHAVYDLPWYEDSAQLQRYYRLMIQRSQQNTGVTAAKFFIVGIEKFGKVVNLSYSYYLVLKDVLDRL
T2 sequence (Q178U6 1-478 partner): T1 sequence (Q178U6 1-478 partner)
Description: as §1, §2, §3

SMILES	Raw data (Responses in nA) Oocyte 1 [1] [nA]	Raw data (Responses in nA) Oocyte 2 [1] [nA]	Raw data (Responses in nA) Oocyte 3 [1] [nA]	Raw data (Responses in nA) Oocyte 4 [1] [nA]	Raw data (Responses in nA) Oocyte 5 [1] [nA]	Raw data (Responses in nA) Oocyte 6 [1] [nA]	Raw data (Responses in nA) Oocyte 7 [1] [nA]	Raw data (Responses in nA) Oocyte 8 [1] [nA]	Raw Data (Response in nA) Oocyte 1 [2] [nA]	Raw Data (Response in nA) Oocyte 2 [2] [nA]	Raw Data (Response in nA) Oocyte 3 [2] [nA]	Raw Data (Response in nA) Oocyte 4 [2] [nA]	Raw Data (Response in nA) Oocyte 5 [2] [nA]	Raw Data (Response in nA) Oocyte 6 [2] [nA]	Raw Data (Response in nA) Oocyte 7 [2] [nA]	Raw Data (Response in nA) Oocyte 8 [2] [nA]	EC50 ([1]; AaegOR6/Orco expressing oocytes, TEVC, concentration-response of normalized current)
O=C1Cc2ccccc2N1 [Oxindole]	0.0	0.0	0.0	0.0	0.0	0.0	0.0	10.0	0	20	0	10	0	10	5	20	
c1ccc2nccnc2c1 [Quinoxaline]	0.0	0.0	0.0	0.0	0.0	0.0	0.0	0.0	0	620	85	370	60	200	80	70	
Nc1cccc2cnccc12 [5-Aminoisoquinoline]	0.0	0.0	0.0	0.0	0.0	0.0	0.0	0.0	130	200	40	40	0	10	0	10	
O=C1CCOc2ccccc21 [4-chromanone, 4-Chromanone]	70.0	50.0	90.0	170.0	70.0	650.0	510.0	510.0	0	310	15	140	15	60	30	20	~6.84 µM and 6.84 µM
c1ccc2ncccc2c1 [Quinoline]	0.0	0.0	0.0	0.0	0.0	10.0	10.0	0.0	900	2210	330	1050	300	760	210	250	
O=C1Nc2ccccc2C1=O [Isatin]	0.0	0.0	10.0	0.0	0.0	0.0	0.0	0.0	150	0	0	0	0	0	10	0	
